Compound: CC(C)CCN1c2nc(Nc3cc(F)c(O)c(F)c3)ncc2N(C)C(=O)C1C [BI-D1870] + Nc1ncn([C@H]2C[C@H](O)[C@@H](CO)O2)c(=O)n1 [Decitabine] (partner 2 µM)
Experiment: relative viability (nuclei count vs DMSO), 5 days (fraction); higher = more cells survive
Conditions: first compound 0.04 µM
Method in brief: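 Relative viability divides the nuclei count in treated wells by that in vehicle wells. Lung cancer cell lines were seeded in 1536-well plates, dosed by pin tool the next day, and fixed and stained after 5 days in one step with final 0.05% Triton X-100, 1% formaldehyde and 1 ug/ml Hoechst. Dosing was a single drug or a fixed anchor-drug dose plus five library-drug doses (not always all listed) in √10 steps, and values are medians of duplicate plates imaged at 4×.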

| Cell Line | relative viability |
| --- | --- |
| NCI-H2342 | 0.714 |
| NCI-H727 | 1.02 |
| NCI-H1650 | 0.405 |
| NCI-H1993 | 0.634 |
| SW 1573 | 0.653 |
| NCI-H838 | 0.47 |
| LCLC-103H | 0.706 |
| NCI-H520 | 0.406 |
| NCI-H2126 | 0.576 |
| EMC-BAC-2 | 1.02 |
| NCI-H2085 | 0.541 |
| HCC-366 | 0.337 |
| NCI-H1666 | 0.711 |
| NCI-H596 | 1.06 |
| LK-2 | 0.373 |
| NCI-H2087 | 0.259 |

| Cell Line | relative viability |
| --- | --- |
| NCI-H1648 | 0.463 |
| SK-MES-1 | 0.395 |
| H3255 | 0.633 |
| COR-L23 | 0.445 |
| COR-L 105 | 0.668 |
| LOU-NH91 | 0.876 |
| ChaGo-K-1 | 0.527 |
| NCI-H2170 | 0.515 |
| A549 | 0.213 |
| NCI-H522 | 0.595 |
| SW 900 | 0.479 |
| NCI-H1395 | 0.68 |
| NCI-H1793 | 0.513 |
| NCI-H1944 | 0.435 |
| ABC-1 | 0.885 |
| NCI-H358 | 0.201 |

Same assay, conditions: first compound 0.1265 µM

| Cell Line | relative viability |
| --- | --- |
| NCI-H2342 | 0.69 |
| NCI-H727 | 0.883 |
| NCI-H1650 | 0.43 |
| NCI-H1993 | 0.438 |
| SW 1573 | 0.497 |
| NCI-H838 | 0.483 |
| LCLC-103H | 0.588 |
| NCI-H520 | 0.494 |
| NCI-H2126 | 0.549 |
| EMC-BAC-2 | 0.985 |
| NCI-H2085 | 0.556 |
| HCC-366 | 0.306 |
| NCI-H1666 | 0.701 |
| NCI-H596 | 0.857 |
| LK-2 | 0.317 |
| NCI-H2087 | 0.28 |

| Cell Line | relative viability |
| --- | --- |
| NCI-H1648 | 0.505 |
| SK-MES-1 | 0.337 |
| H3255 | 0.643 |
| COR-L23 | 0.402 |
| COR-L 105 | 0.516 |
| LOU-NH91 | 0.8 |
| ChaGo-K-1 | 0.468 |
| NCI-H2170 | 0.384 |
| A549 | 0.282 |
| NCI-H522 | 0.762 |
| SW 900 | 0.47 |
| NCI-H1395 | 0.671 |
| NCI-H1793 | 0.439 |
| NCI-H1944 | 0.415 |
| ABC-1 | 1.05 |
| NCI-H358 | 0.195 |

Same assay, conditions: first compound 0.4 µM

| Cell Line | relative viability |
| --- | --- |
| NCI-H2342 | 0.793 |
| NCI-H727 | 0.909 |
| NCI-H1650 | 0.554 |
| NCI-H1993 | 0.668 |
| SW 1573 | 0.473 |
| NCI-H838 | 0.477 |
| LCLC-103H | 0.723 |
| NCI-H520 | 0.597 |
| NCI-H2126 | 0.585 |
| EMC-BAC-2 | 1.01 |
| NCI-H2085 | 0.643 |
| HCC-366 | 0.322 |
| NCI-H1666 | 0.716 |
| NCI-H596 | 0.956 |
| LK-2 | 0.379 |
| NCI-H2087 | 0.307 |

| Cell Line | relative viability |
| --- | --- |
| SK-MES-1 | 0.332 |
| H3255 | 0.571 |
| COR-L23 | 0.508 |
| COR-L 105 | 0.668 |
| LOU-NH91 | 0.792 |
| ChaGo-K-1 | 0.506 |
| NCI-H2170 | 0.457 |
| A549 | 0.27 |
| NCI-H522 | 0.677 |
| SW 900 | 0.472 |
| NCI-H1395 | 0.707 |
| NCI-H1793 | 0.528 |
| NCI-H1944 | 0.388 |
| ABC-1 | 1.15 |
| NCI-H358 | 0.202 |

Same assay, conditions: first compound 1.265 µM

| Cell Line | relative viability |
| --- | --- |
| NCI-H2342 | 0.891 |
| NCI-H727 | 0.921 |
| NCI-H1650 | 0.572 |
| NCI-H1993 | 0.647 |
| SW 1573 | 0.372 |
| NCI-H838 | 0.444 |
| LCLC-103H | 0.804 |
| NCI-H520 | 0.649 |
| NCI-H2126 | 0.606 |
| EMC-BAC-2 | 1.27 |
| NCI-H2085 | 0.519 |
| HCC-366 | 0.469 |
| NCI-H1666 | 0.732 |
| NCI-H596 | 1.14 |
| LK-2 | 0.353 |
| NCI-H2087 | 0.342 |

| Cell Line | relative viability |
| --- | --- |
| NCI-H1648 | 0.527 |
| SK-MES-1 | 0.395 |
| H3255 | 0.749 |
| COR-L23 | 0.526 |
| COR-L 105 | 0.733 |
| LOU-NH91 | 0.821 |
| ChaGo-K-1 | 0.519 |
| NCI-H2170 | 0.445 |
| A549 | 0.288 |
| NCI-H522 | 0.647 |
| SW 900 | 0.534 |
| NCI-H1395 | 0.738 |
| NCI-H1793 | 0.681 |
| NCI-H1944 | 0.508 |
| ABC-1 | 0.942 |
| NCI-H358 | 0.21 |

Same assay, conditions: first compound 4 µM

| Cell Line | relative viability |
| --- | --- |
| NCI-H2342 | 0.795 |
| NCI-H727 | 1.01 |
| NCI-H1650 | 0.589 |
| NCI-H1993 | 0.579 |
| SW 1573 | 0.26 |
| NCI-H838 | 0.523 |
| LCLC-103H | 0.678 |
| NCI-H520 | 0.471 |
| NCI-H2126 | 0.556 |
| EMC-BAC-2 | 1.02 |
| NCI-H2085 | 0.557 |
| HCC-366 | 0.414 |
| NCI-H1666 | 0.677 |
| NCI-H596 | 0.999 |
| LK-2 | 0.342 |
| NCI-H2087 | 0.38 |
| NCI-H1648 | 0.578 |
| SK-MES-1 | 0.304 |
| H3255 | 0.648 |
| COR-L23 | 0.405 |
| COR-L 105 | 0.656 |
| LOU-NH91 | 0.629 |
| ChaGo-K-1 | 0.511 |
| NCI-H2170 | 0.402 |
| A549 | 0.236 |
| NCI-H522 | 0.661 |
| SW 900 | 0.498 |
| NCI-H1395 | 0.718 |

— the supplement of paper PMC10307832
